Reference: ChEMBL document CHEMBL3885881, “DrugMatrix”

Organism: Rattus norvegicus
Assay: DrugMatrix - Regimen: Daily Repeat
Type: toxicity, organism-based, Sprague-Dawley
Parameters: regimen Daily Repeat, gender Male, age 6-8 weeks
Details: in vivo, po, route oral GAVAGE, vehicle .5 % CMC; for ABSOLUTE BASOPHIL / ABSOLUTE EOSINOPHIL / ABSOLUTE LYMPHOCYTE / ABSOLUTE MONOCYTE / ABSOLUTE SEGMENTED NEUTROPHIL / BASOPHIL / EOSINOPHIL / ERYTHROCYTE COUNT / HEMATOCRIT / HEMOGLOBIN / LEUKOCYTE COUNT / LYMPHOCYTE / MEAN CORPUSCULAR HEMOGLOBIN / MEAN CORPUSCULAR HEMOGLOBIN CONCENTRATION / MEAN CORPUSCULAR VOLUME / MONOCYTE / NEUTROPHIL / NUCLEATED RED BLOOD CELLS / PLATELET COUNT: tissue Blood; for ALANINE AMINOTRANSFERASE / ALBUMIN / ALKALINE PHOSPHATASE / ASPARTATE AMINOTRANSFERASE / BLOOD UREA NITROGEN / CARBON DIOXIDE / CHLORIDE / CHOLESTEROL / CREATINE PHOSPHOKINASE / CREATININE / GLUCOSE / LACTATE DEHYDROGENASE / LIPASE / PHOSPHORUS / POTASSIUM / SODIUM / TOTAL BILIRUBIN / TOTAL PROTEIN / URIC ACID: tissue Plasma
[1] = 75 mg/kg, 72 h, dose level Low, time 3 day
[2] = 75 mg/kg, 120 h, dose level Low, time 5 day
[3] = 750 mg/kg, 72 h, dose level High, time 3 day
[4] = 750 mg/kg, 120 h, dose level High, time 5 day

## CC(=O)OC[C@H]1O[C@@H](n2ncc(=O)[nH]c2=O)[C@H](OC(C)=O)[C@@H]1OC(C)=O [AZARIBINE]
[1]
  ABSOLUTE BASOPHIL: 0 CELLS/uL
  ABSOLUTE EOSINOPHIL: 0 CELLS/uL
  ABSOLUTE LYMPHOCYTE: 12537.67 CELLS/uL
  ABSOLUTE MONOCYTE: 196 CELLS/uL
  ABSOLUTE SEGMENTED NEUTROPHIL: 1699.67 CELLS/uL
  BASOPHIL: 0%
  EOSINOPHIL: 0%
  ERYTHROCYTE COUNT: 5.31 x10E6/uL
  HEMATOCRIT: 32.6%
  HEMOGLOBIN: 12.37 G/DL
  LEUKOCYTE COUNT: 14.43 x10E3/uL
  LYMPHOCYTE: 87%
  MEAN CORPUSCULAR HEMOGLOBIN: 23.3 pg
  MEAN CORPUSCULAR HEMOGLOBIN CONCENTRATION: 37.93 G/DL
  MEAN CORPUSCULAR VOLUME: 61.4 fL
  MONOCYTE: 1.33%
  NEUTROPHIL: 11.67%
  NUCLEATED RED BLOOD CELLS: 0 /100WBC
  PLATELET COUNT: 1235.33 x10E3/uL
  ALANINE AMINOTRANSFERASE: 37 u/L
  ALBUMIN: 4.13 G/DL
  ALKALINE PHOSPHATASE: 384.67 u/L
  ASPARTATE AMINOTRANSFERASE: 74.67 u/L
  BLOOD UREA NITROGEN: 16.33 mg/dL
  CARBON DIOXIDE: 24.33 mmol/L
  CHLORIDE: 100.67 MEQ/L
  CHOLESTEROL: 73 mg/dL
  CREATINE PHOSPHOKINASE: 254.33 u/L
  CREATININE: 0.25 mg/dL
  GLUCOSE: 157.67 mg/dL
  LACTATE DEHYDROGENASE: 151 u/L
  LIPASE: 10.33 u/L
  PHOSPHORUS: 12.53 mg/dL
  POTASSIUM: 5.81 MEQ/L
  SODIUM: 141.13 MEQ/L
  TOTAL BILIRUBIN: 0.17 mg/dL
  TOTAL PROTEIN: 6.2 G/DL
  URIC ACID: 1.1 mg/dL
[2]
  ABSOLUTE BASOPHIL: 0 CELLS/uL
  ABSOLUTE EOSINOPHIL: 42.67 CELLS/uL
  ABSOLUTE LYMPHOCYTE: 10939.33 CELLS/uL
  ABSOLUTE MONOCYTE: 627 CELLS/uL
  ABSOLUTE SEGMENTED NEUTROPHIL: 1691 CELLS/uL
  BASOPHIL: 0%
  EOSINOPHIL: 0.33%
  ERYTHROCYTE COUNT: 5.34 x10E6/uL
  HEMATOCRIT: 32.93%
  HEMOGLOBIN: 12.57 G/DL
  LEUKOCYTE COUNT: 13.3 x10E3/uL
  LYMPHOCYTE: 82.33%
  MEAN CORPUSCULAR HEMOGLOBIN: 23.53 pg
  MEAN CORPUSCULAR HEMOGLOBIN CONCENTRATION: 38.17 G/DL
  MEAN CORPUSCULAR VOLUME: 61.67 fL
  MONOCYTE: 4.67%
  NEUTROPHIL: 12.67%
  NUCLEATED RED BLOOD CELLS: 0 /100WBC
  PLATELET COUNT: 932 x10E3/uL
  ALANINE AMINOTRANSFERASE: 43.33 u/L
  ALBUMIN: 3.93 G/DL
  ALKALINE PHOSPHATASE: 273 u/L
  ASPARTATE AMINOTRANSFERASE: 76 u/L
  BLOOD UREA NITROGEN: 16.67 mg/dL
  CARBON DIOXIDE: 33 mmol/L
  CHLORIDE: 95.33 MEQ/L
  CHOLESTEROL: 74 mg/dL
  CREATINE PHOSPHOKINASE: 309 u/L
  CREATININE: 0.2 mg/dL
  GLUCOSE: 150 mg/dL
  LACTATE DEHYDROGENASE: 226 u/L
  LIPASE: 10.33 u/L
  PHOSPHORUS: 12.03 mg/dL
  POTASSIUM: 6.04 MEQ/L
  SODIUM: 140.6 MEQ/L
  TOTAL BILIRUBIN: 0.1 mg/dL
  TOTAL PROTEIN: 5.93 G/DL
  URIC ACID: 1.33 mg/dL
[3]
  ABSOLUTE BASOPHIL: 0 CELLS/uL
  ABSOLUTE EOSINOPHIL: 37.33 CELLS/uL
  ABSOLUTE LYMPHOCYTE: 11597.33 CELLS/uL
  ABSOLUTE MONOCYTE: 87.33 CELLS/uL
  ABSOLUTE SEGMENTED NEUTROPHIL: 844.67 CELLS/uL
  BASOPHIL: 0%
  EOSINOPHIL: 0.33%
  ERYTHROCYTE COUNT: 4.98 x10E6/uL
  HEMATOCRIT: 31.27%
  HEMOGLOBIN: 11.73 G/DL
  LEUKOCYTE COUNT: 12.57 x10E3/uL
  LYMPHOCYTE: 92%
  MEAN CORPUSCULAR HEMOGLOBIN: 23.63 pg
  MEAN CORPUSCULAR HEMOGLOBIN CONCENTRATION: 37.53 G/DL
  MEAN CORPUSCULAR VOLUME: 62.9 fL
  MONOCYTE: 0.67%
  NEUTROPHIL: 7%
  NUCLEATED RED BLOOD CELLS: 0 /100WBC
  PLATELET COUNT: 1125.67 x10E3/uL
  ALANINE AMINOTRANSFERASE: 29 u/L
  ALBUMIN: 4.23 G/DL
  ALKALINE PHOSPHATASE: 344 u/L
  ASPARTATE AMINOTRANSFERASE: 95.33 u/L
  BLOOD UREA NITROGEN: 18 mg/dL
  CARBON DIOXIDE: 25.67 mmol/L
  CHLORIDE: 101 MEQ/L
  CHOLESTEROL: 66 mg/dL
  CREATINE PHOSPHOKINASE: 781.33 u/L
  CREATININE: 0.22 mg/dL
  GLUCOSE: 147.33 mg/dL
  LACTATE DEHYDROGENASE: 248.33 u/L
  LIPASE: 10.33 u/L
  PHOSPHORUS: 12.2 mg/dL
  POTASSIUM: 5.97 MEQ/L
  SODIUM: 141.5 MEQ/L
  TOTAL BILIRUBIN: 0.2 mg/dL
  TOTAL PROTEIN: 6.1 G/DL
  URIC ACID: 1.43 mg/dL
[4]
  ABSOLUTE BASOPHIL: 0 CELLS/uL
  ABSOLUTE EOSINOPHIL: 49.33 CELLS/uL
  ABSOLUTE LYMPHOCYTE: 12972.67 CELLS/uL
  ABSOLUTE MONOCYTE: 95.67 CELLS/uL
  ABSOLUTE SEGMENTED NEUTROPHIL: 649 CELLS/uL
  BASOPHIL: 0%
  EOSINOPHIL: 0.33%
  ERYTHROCYTE COUNT: 5 x10E6/uL
  HEMATOCRIT: 29.63%
  HEMOGLOBIN: 11.47 G/DL
  LEUKOCYTE COUNT: 13.77 x10E3/uL
  LYMPHOCYTE: 94.33%
  MEAN CORPUSCULAR HEMOGLOBIN: 22.93 pg
  MEAN CORPUSCULAR HEMOGLOBIN CONCENTRATION: 38.7 G/DL
  MEAN CORPUSCULAR VOLUME: 59.27 fL
  MONOCYTE: 0.67%
  NEUTROPHIL: 4.67%
  NUCLEATED RED BLOOD CELLS: 0 /100WBC
  PLATELET COUNT: 1279 x10E3/uL
  ALANINE AMINOTRANSFERASE: 26.67 u/L
  ALBUMIN: 4.07 G/DL
  ALKALINE PHOSPHATASE: 306.67 u/L
  ASPARTATE AMINOTRANSFERASE: 81.33 u/L
  BLOOD UREA NITROGEN: 15.33 mg/dL
  CARBON DIOXIDE: 30.33 mmol/L
  CHLORIDE: 98.67 MEQ/L
  CHOLESTEROL: 73.67 mg/dL
  CREATINE PHOSPHOKINASE: 266 u/L
  CREATININE: 0.22 mg/dL
  GLUCOSE: 135.67 mg/dL
  LACTATE DEHYDROGENASE: 347 u/L
  LIPASE: 10 u/L
  PHOSPHORUS: 11.07 mg/dL
  POTASSIUM: 6.41 MEQ/L
  SODIUM: 142.17 MEQ/L
  TOTAL BILIRUBIN: 0.1 mg/dL
  TOTAL PROTEIN: 6 G/DL
  URIC ACID: 1.37 mg/dL
